Literature values as cited in publication PMC7094298 (Febs Letters, 2009).
“Also recorded” adds a separate entry of the source.

Columns and labels:
SARS-CoV 3CLpro = SARS-CoV 3CLpro (Severe acute respiratory syndrome coronavirus, UniProt P0C6X7)
[1] = test system: RV and other picornaviral 3Cpro

SMILES: CCOC(=O)/C=C/[C@H](C[C@@H]1CCNC1=O)NC(=O)[C@@H](CC(=O)[C@@H](NC(=O)c1cc(C)on1)C(C)C)Cc1ccc(F)cc1 [AG7088]
- inhibition of SARS-CoV 3CLpro (SARS-CoV 3CLpro): did not inhibit; also recorded: failed to inhibit
- inhibition of RV and other picornaviral 3Cpro [1]: potent inhibitor
